Patent publication US11453638B2, “Process method for producing pesticide by using carbon dioxide” (Nankai University, priority 2018, dated 2022)

Legend:
Format in all cases: in vivo
Helicoverpa armigera = experiment: Activity of killing Helicoverpa armigera (leaf soaking method); conditions: for Mortality: 600 ppm, third-instar larvae, corn leaf soaking, 72 hours
Experimental: 3) Activity of killing Helicoverpa armigera:Helicoverpa armigera, a normal population raised indoors. Test method: leaf soaking method. In the leaf soaking method, corn leaves are soaked in a liquid medicine prepared by acetone (600 ppm, 600 mg/L), ground and put into 24 holes after the liquid medicine is dried, one third-instar larva is inserted into each hole, 10 are used for each time, and three times are repeated, a total of 30 test insects are tested, mainly gastric toxicity and contact killing effects, and the feeding phenomenon of the larva is observed. Mortality was examined 72 hours later.

[1] = system: Ostrinia nubilalis Hubner; experiment: Activity of killing Ostrinia nubilalis Hubner (leaf soaking method); conditions: for Mortality: 600 ppm (table), 3rd instar larvae, corn leaf dipping, 72 hours
Description: 4) Activity of killing Ostrinia nubilalis Hubner: Ostrinia nubilalis Hubner, a normal population raised indoors. Test method: leaf soaking method. In the leaf dipping method, corn leaves are dipped in a liquid medicine prepared by acetone ([…]), 10 3rd instar larvae are inoculated into a culture dish after the liquid medicine is dried, and 30 test larvae are shared for three times, mainly gastric toxicity and contact killing effects, and the feeding phenomenon of the larvae is observed. Mortality was examined 72 hours later.

Mythimna separata Walker = experiment: Activity of killing Mythimna separata Walker (leaf dipping method); conditions: for Mortality: 4th instar larvae, corn leaf dipping, 24 hours
Experimental: 1) Activity of killing Mythimna separata Walker: Mythimna separata Walker, a normal population raised indoors. In the leaf dipping method, corn leaves are dipped in a liquid medicine ([…]) prepared by acetone, and the 4th instar larvae are inoculated after the liquid medicine, mainly for stomach toxicity and contact killing, and the feeding phenomenon of the larvae is observed. Mortality was examined 24 hours.

Culex pipiens pallens = experiment: Activity of killing Culex pipiens pallens larvae; conditions: for Mortality: 10 ppm, 4th instar mosquito larvae in water, 24 h
Experimental: 2) Activity of killing Culexpipiens pallens larval: Culicides pallens, a normal indoor population. Weigh about 5 mg of the test compound into a penicillin vial, add 5 mL of acetone (or a suitable solvent), and shake to dissolve, i.e. 1000 μg·ml^−1 mother liquor. 0.5 mL mother liquor was removed and added into a 100 mL beaker containing […] of water. Ten 4th instar mosquito larvae were selected and poured into the beaker together with 10 mL of feeding liquid. The concentration of the liquid medicine was 10 μg·ml^−1. Place the treatment in the standard treatment room, and check the results 24 h. The blank control was an aqueous solution containing 0.5 mL of test solvent.

`CC1CC(=O)C(C(=O)Nc2ccccc2)=C(Nc2ccccc2)C1` (centres unmarked) [compound 3b] gave a Mortality (Helicoverpa armigera) of 15%, a Mortality [1] of 20% and a Mortality (Mythimna separata Walker; 600 ppm) of 35%. It also gave a Mortality (Culex pipiens pallens) of 70%.

In the case of `CC1(C)CC(=O)C(C(=O)Nc2ccccc2)=C(Nc2ccccc2)C1` [compound 3c], the Mortality (Helicoverpa armigera) was 10%, the Mortality [1] was 15% and the Mortality (Mythimna separata Walker; 600 ppm) was 30%. For the same compound, the Mortality (Culex pipiens pallens) was 80%.

In the case of `CCC1CC(=O)C(C(=O)Nc2ccccc2)=C(Nc2ccccc2)C1` (centres unmarked) [compound 3d], the Mortality (Helicoverpa armigera) was 100%, the “lethal rate to cotton bollworm” value (Helicoverpa armigera; concentration of 600 ppm) was 100% and the Mortality [1] was 100%. The “lethal rate to Ostrinia nubilalis Hubner” value ([1]; concentration of 600 ppm) was 100%, the Mortality (Mythimna separata Walker; 200 ppm) was 100% and the “lethal rate to armyworm” value (Mythimna separata Walker; concentration of 200 ppm) was 100%. For the same compound, the Mortality (Culex pipiens pallens) was 20%.

For `CCCC1CC(=O)C(C(=O)Nc2ccccc2)=C(Nc2ccccc2)C1` (centres unmarked) [compound 3e], the Mortality (Helicoverpa armigera) was 25%, the Mortality [1] was 30% and the Mortality (Mythimna separata Walker; 600 ppm) was 55%. For the same compound, the Mortality (Culex pipiens pallens) was 100% and the “lethal rate to Culex pipiens larvae” value (Culex pipiens pallens; concentration of 10 ppm) was 100%.
